{
  "source": "patent US20160113282A1",
  "about": "(HONBU SANKEI CO., LTD., priority 2013, published 2016)",
  "key": {"[1]": {"test_system": "feline calicivirus F4 strain", "assay": "In vitro test in test tube, feline caliciviruses (Example 11)", "assay_type": "cell-based", "conditions": "pH unadjusted"}, "HEp-2 cells [2]": {"test_system": "HEp-2 cells", "assay": "Impairment in colony formation capability", "assay_type": "cell-based, human", "conditions": "phosphoric acid buffer (FIG. 7)"}, "HEp-2 cells [3]": {"test_system": "HEp-2 cells", "conditions": "human, 20 min"}, "[4]": {"test_system": "influenza virus Type A Aichi strain A/Aichi/68 (H3N2)", "assay_type": "cell-based", "conditions": "10 ppm; for ratio of the amount of residual infectious viruses: 30 minutes at 25° C., PBS = 1.00"}, "Vero cells": {"test_system": "Vero cells", "assay": "Impairment in colony formation capability", "assay_type": "cell-based, African green monkey", "conditions": "phosphoric acid buffer (FIG. 7)"}, "MDCK cells": {"test_system": "MDCK cells", "assay": "Impairment in colony formation capability", "assay_type": "cell-based, canine", "conditions": "phosphoric acid buffer (FIG. 7)"}, "[5]": {"test_system": "Herpes simplex virus type I VR-539", "assay": "Inactivation of herpesviruses, plaque assay on Vero cells", "assay_type": "cell-based"}, "feline caliciviruses": {"test_system": "feline caliciviruses", "assay": "Sterilizing solution wrung from wet wipe, feline caliciviruses (Example 11)"}},
  "note": "Where two headings read alike, the source gives them in different places.",
  "data": [
    {"compound": "OCl", "note": "[Sodium hypochlorite aqueous solution, sodium hypochlorite]", "values": [
      {"measurement": "number of infectious viruses", "setting": "[1]; 200 ppm, contact 10 min", "value": "<2.0", "unit": "log CPU/mL"},
      {"measurement": "number of infectious viruses", "setting": "[1]; 400 ppm, contact 0 min", "value": "6.4 ± 2.7", "unit": "log CPU/mL"},
      {"measurement": "number of infectious viruses", "setting": "[1]; 400 ppm, contact 1 min", "value": "<2.0", "unit": "log CPU/mL"},
      {"measurement": "number of infectious viruses", "setting": "[1]; 400 ppm, contact 5 min", "value": "<2.0", "unit": "log CPU/mL"},
      {"measurement": "number of infectious viruses", "setting": "[1]; 400 ppm, contact 10 min", "value": "<2.0", "unit": "log CPU/mL"},
      {"measurement": "concentration at which impairment in colony formation was observed", "setting": "HEp-2 cells [2]", "value": "≤ 5", "unit": "ppm"},
      {"measurement": "concentration that generated dead cells", "setting": "HEp-2 cells [3]", "value": "about 0.5 ppm"},
      {"measurement": "viruses inactivated to (detectable limit)", "setting": "[4]; each pH from pH 5.5 to pH 8.8", "value": "< 10^−5"},
      {"measurement": "ratio of the amount of residual infectious viruses", "setting": "[4]; pH 5.5", "value": "<0.0002"},
      {"measurement": "ratio of the amount of residual infectious viruses", "setting": "[4]; pH 6.5", "value": "<0.0002"},
      {"measurement": "ratio of the amount of residual infectious viruses", "setting": "[4]; pH 7.5", "value": "<0.0002"},
      {"measurement": "ratio of the amount of residual infectious viruses", "setting": "[4]; pH 8.5", "value": "<0.0002"},
      {"measurement": "concentration at which impairment in colony formation was observed", "setting": "Vero cells", "value": "≤ 5", "unit": "ppm"},
      {"measurement": "concentration at which impairment in colony formation was observed", "setting": "MDCK cells", "value": "≤ 5", "unit": "ppm"},
      {"measurement": "sterilizing effect on herpesvirus type I", "setting": "[5]; acidic conditions of pH 5.5 or lower", "value": "diminished"},
      {"measurement": "Number of Residual Viruses in Test Solution/Number of Residual Viruses only with Buffer × 100 (%)", "setting": "[5]; pH 4.5, 10 ppm", "value": 80, "unit": "%"},
      {"measurement": "Number of Residual Viruses in Test Solution/Number of Residual Viruses only with Buffer × 100 (%)", "setting": "[5]; pH 4.5, 50 ppm", "value": 67.4, "unit": "%"},
      {"measurement": "Number of Residual Viruses in Test Solution/Number of Residual Viruses only with Buffer × 100 (%)", "setting": "[5]; pH 4.5, 100 ppm", "value": 63.1, "unit": "%"},
      {"measurement": "Number of Residual Viruses in Test Solution/Number of Residual Viruses only with Buffer × 100 (%)", "setting": "[5]; pH 4.5, 150 ppm", "value": 23.3, "unit": "%"},
      {"measurement": "Number of Residual Viruses in Test Solution/Number of Residual Viruses only with Buffer × 100 (%)", "setting": "[5]; pH 4.5, 200 ppm", "value": 35.2, "unit": "%"},
      {"measurement": "Number of Residual Viruses in Test Solution/Number of Residual Viruses only with Buffer × 100 (%)", "setting": "[5]; pH 5.5, 10 ppm", "value": 14.3, "unit": "%"},
      {"measurement": "Number of Residual Viruses in Test Solution/Number of Residual Viruses only with Buffer × 100 (%)", "setting": "[5]; pH 5.5, 50 ppm", "value": 90.9, "unit": "%"},
      {"measurement": "Number of Residual Viruses in Test Solution/Number of Residual Viruses only with Buffer × 100 (%)", "setting": "[5]; pH 5.5, 100 ppm", "value": 96.4, "unit": "%"},
      {"measurement": "Number of Residual Viruses in Test Solution/Number of Residual Viruses only with Buffer × 100 (%)", "setting": "[5]; pH 5.5, 150 ppm", "value": "<0.2", "unit": "%"},
      {"measurement": "Number of Residual Viruses in Test Solution/Number of Residual Viruses only with Buffer × 100 (%)", "setting": "[5]; pH 5.5, 150 ppm, listed as sodium hypochlorite aqueous solution", "value": "below the detectable limit"},
      {"measurement": "Number of Residual Viruses in Test Solution/Number of Residual Viruses only with Buffer × 100 (%)", "setting": "[5]; pH 5.5, 200 ppm", "value": "<0.5", "unit": "%"},
      {"measurement": "Number of Residual Viruses in Test Solution/Number of Residual Viruses only with Buffer × 100 (%)", "setting": "[5]; pH 5.5, 200 ppm, listed as sodium hypochlorite aqueous solution", "value": "below the detectable limit"},
      {"measurement": "Number of Residual Viruses in Test Solution/Number of Residual Viruses only with Buffer × 100 (%)", "setting": "[5]; pH 6.5, 10 ppm", "value": "<6", "unit": "%"},
      {"measurement": "Number of Residual Viruses in Test Solution/Number of Residual Viruses only with Buffer × 100 (%)", "setting": "[5]; pH 6.5, 50 ppm", "value": "<0.3", "unit": "%"},
      {"measurement": "Number of Residual Viruses in Test Solution/Number of Residual Viruses only with Buffer × 100 (%)", "setting": "[5]; pH 6.5, 100 ppm", "value": "<0.3", "unit": "%"},
      {"measurement": "Number of Residual Viruses in Test Solution/Number of Residual Viruses only with Buffer × 100 (%)", "setting": "[5]; pH 6.5, 150 ppm", "value": "<0.2", "unit": "%"},
      {"measurement": "Number of Residual Viruses in Test Solution/Number of Residual Viruses only with Buffer × 100 (%)", "setting": "[5]; pH 6.5, 200 ppm", "value": "<0.6", "unit": "%"},
      {"measurement": "Number of Residual Viruses in Test Solution/Number of Residual Viruses only with Buffer × 100 (%)", "setting": "[5]; pH 7.5, 10 ppm", "value": 20, "unit": "%"},
      {"measurement": "Number of Residual Viruses in Test Solution/Number of Residual Viruses only with Buffer × 100 (%)", "setting": "[5]; pH 7.5, 50 ppm", "value": "<0.3", "unit": "%"},
      {"measurement": "Number of Residual Viruses in Test Solution/Number of Residual Viruses only with Buffer × 100 (%)", "setting": "[5]; pH 7.5, 100 ppm", "value": "<0.3", "unit": "%"},
      {"measurement": "Number of Residual Viruses in Test Solution/Number of Residual Viruses only with Buffer × 100 (%)", "setting": "[5]; pH 7.5, 150 ppm", "value": "<0.2", "unit": "%"},
      {"measurement": "Number of Residual Viruses in Test Solution/Number of Residual Viruses only with Buffer × 100 (%)", "setting": "[5]; pH 7.5, 200 ppm", "value": "<0.4", "unit": "%"},
      {"measurement": "Number of Residual Viruses in Test Solution/Number of Residual Viruses only with Buffer × 100 (%)", "setting": "[5]; pH 8.5, 10 ppm", "value": 36, "unit": "%"},
      {"measurement": "Number of Residual Viruses in Test Solution/Number of Residual Viruses only with Buffer × 100 (%)", "setting": "[5]; pH 8.5, 50 ppm", "value": "<0.3", "unit": "%"},
      {"measurement": "Number of Residual Viruses in Test Solution/Number of Residual Viruses only with Buffer × 100 (%)", "setting": "[5]; pH 8.5, 100 ppm", "value": "<0.3", "unit": "%"},
      {"measurement": "Number of Residual Viruses in Test Solution/Number of Residual Viruses only with Buffer × 100 (%)", "setting": "[5]; pH 8.5, 150 ppm", "value": "<0.2", "unit": "%"},
      {"measurement": "Number of Residual Viruses in Test Solution/Number of Residual Viruses only with Buffer × 100 (%)", "setting": "[5]; pH 8.5, 200 ppm", "value": "<0.4", "unit": "%"},
      {"measurement": "concentration reducing HSV-I to below the detectable limit", "setting": "[5]; pH conditions of 6.5-8.5", "value": "≥ 50", "unit": "ppm"},
      {"measurement": "number of infectious viruses", "setting": "feline caliciviruses; solution from wet wipe, 500 ppm (formulation 60 times), contact 1 min", "value": "3.5 ± 2.1", "unit": "CPU/mL"},
      {"measurement": "number of infectious viruses", "setting": "feline caliciviruses; solution from wet wipe, 500 ppm (formulation 60 times), contact 5 min", "value": "2.9 ± 2.7", "unit": "CPU/mL"},
      {"measurement": "number of infectious viruses", "setting": "feline caliciviruses; solution from wet wipe, 500 ppm (formulation 60 times), contact 10 min", "value": "<100", "unit": "CPU/mL"},
      {"measurement": "number of infectious viruses", "setting": "feline caliciviruses; solution from wet wipe, 750 ppm (formulation 40 times), contact 1 min", "value": "<100", "unit": "CPU/mL"},
      {"measurement": "number of infectious viruses", "setting": "feline caliciviruses; solution from wet wipe, 750 ppm (formulation 40 times), contact 5 min", "value": "<100", "unit": "CPU/mL"},
      {"measurement": "number of infectious viruses", "setting": "feline caliciviruses; solution from wet wipe, 750 ppm (formulation 40 times), contact 10 min", "value": "<100", "unit": "CPU/mL"},
      {"measurement": "number of infectious viruses", "setting": "feline caliciviruses; solution from wet wipe, 1000 ppm (formulation 30 times), contact 1 min", "value": "<100", "unit": "CPU/mL"},
      {"measurement": "number of infectious viruses", "setting": "feline caliciviruses; solution from wet wipe, 1000 ppm (formulation 30 times), contact 5 min", "value": "<100", "unit": "CPU/mL"},
      {"measurement": "number of infectious viruses", "setting": "feline caliciviruses; solution from wet wipe, 1000 ppm (formulation 30 times), contact 10 min", "value": "<100", "unit": "CPU/mL"},
      {"measurement": "number of infectious viruses", "setting": "feline caliciviruses; solution from wet wipe, 3000 ppm (formulation 10 times), contact 1 min", "value": "<100", "unit": "CPU/mL"},
      {"measurement": "number of infectious viruses", "setting": "feline caliciviruses; solution from wet wipe, 3000 ppm (formulation 10 times), contact 5 min", "value": "<100", "unit": "CPU/mL"},
      {"measurement": "number of infectious viruses", "setting": "feline caliciviruses; solution from wet wipe, 3000 ppm (formulation 10 times), contact 10 min", "value": "<100", "unit": "CPU/mL"},
      {"measurement": "number of infectious viruses", "setting": "feline caliciviruses; wet wipe stored Day 0, 1000 ppm, contact 1 min", "value": "<100"},
      {"measurement": "number of infectious viruses", "setting": "feline caliciviruses; wet wipe stored Day 0, 1000 ppm, contact 5 min", "value": "<100"},
      {"measurement": "number of infectious viruses", "setting": "feline caliciviruses; wet wipe stored Day 0, 1000 ppm, contact 10 min", "value": "<100"},
      {"measurement": "number of infectious viruses", "setting": "feline caliciviruses; wet wipe stored Day 0, 3000 ppm, contact 1 min", "value": "<100"},
      {"measurement": "number of infectious viruses", "setting": "feline caliciviruses; wet wipe stored Day 0, 3000 ppm, contact 5 min", "value": "<100"},
      {"measurement": "number of infectious viruses", "setting": "feline caliciviruses; wet wipe stored Day 0, 3000 ppm, contact 10 min", "value": "<100"},
      {"measurement": "number of infectious viruses", "setting": "feline caliciviruses; wet wipe stored Day 3, 1000 ppm, contact 1 min", "value": "Many"},
      {"measurement": "number of infectious viruses", "setting": "feline caliciviruses; wet wipe stored Day 3, 1000 ppm, contact 5 min", "value": "Many"},
      {"measurement": "number of infectious viruses", "setting": "feline caliciviruses; wet wipe stored Day 3, 1000 ppm, contact 10 min", "value": "Many"},
      {"measurement": "number of infectious viruses", "setting": "feline caliciviruses; wet wipe stored Day 3, 3000 ppm, contact 1 min", "value": "Many"},
      {"measurement": "number of infectious viruses", "setting": "feline caliciviruses; wet wipe stored Day 3, 3000 ppm, contact 5 min", "value": "Many"},
      {"measurement": "number of infectious viruses", "setting": "feline caliciviruses; wet wipe stored Day 3, 3000 ppm, contact 10 min", "value": "Many"}
    ]}
  ]
}
